Legend:
[1] = tested on: Cannabis sp. hemp varietal clones (Happy Camper); assay: Example 1: indoor cultivation experiment, elicitor treatments, secondary metabolite content of flowers; type: in vivo; settings: for terpene production (in words): applied alone or in conjunction with other elicitor treatments; for Total terpene production, change: either MeJA and/or SA (pooled) vs control or si only
Text: Applicant performed an indoor cultivation experiment with 30 identical Cannabis sp. hemp varietal clones (Happy Camper, CBDRx LLC, Colorado). Each of the thirty plants was randomly assigned to one of six treatment groups to test the efficacy and effectiveness of each elicitor compound in isolation or in combination. Plants were maintained in an isolated indoor growing environment under eight, 600-watt double-ended electronic high pressure sodium lamps (Gavita International B.V) under a photoperiod of 12 hours of light per 24-hour day and potted in 1-gallon black plastic pots with a 55% coco coir/45% perlite media (Miller Soils LLC, Longmont, Colo., USA), then transplanted into 10-gallon fabric pots (Smart Pot, High Caliper Growing, USA) filled with a mixture of 75% coco coir and 25% cork (DNA-Mills Ltd, London, England), irrigated as needed with tap water and fertilized consistently to maintain good health with a 4-20-39 base nutrient supplemented with 15-0-0 Calcium Nitrate and commercially available magnesium sulfate (Hydro Gardens International, Colorado Springs, Colo.) at a rate of 300-500 ppm (TDS) as needed. A microbial inoculant (Tribus Original, Impello Biosciences, Ft. Collins, Colo.) was applied at a rate of 1 mL/gallon of nutrient solution every watering to improve plant health. Drip emitters and an automated watering system supplied water and nutrients equally to each plant. Temperatures in the growing environment were maintained at 75° F.±15° F. with a relative humidity range of 30-60%. Every 14 days of growth, all plants were supplemented with a fish protein hydrolysate at a rate of 5 ml/gallon of the previously mentioned nutrient solution to improve nutrition (Innate Bloom 4-2-1, Impello Biosciences, Colorado).
Treatment groups included (1) applications of MeJA as a foliar spray at a concentration of 7.5 mM, (2) SA as a foliar spray at a concentration of 0.5 mM, (3) SiA as a root drench at a concentration of 3 mM, (4) MeJA as a foliar spray at a concentration of 7.5 mM and a root drench of SiA at a concentration of 3 mM, and (5) MeJA as a foliar spray at a concentration of 7.5 mM and a root drench of SiA at a concentration of 3 mM and foliar applications of SA at a concentration of 0.5 mM. The control group was not treated with any applications aside from normal fertilization. Foliar applications of MeJA were performed in the morning hours, within 30 minutes of daybreak, with applications covering plant leaves until dripping. Applications of SA for all SA treatment groups were performed in the morning hours, within 30 minutes of daybreak, with applications covering plant leaves until dripping. Applications of SiA were performed by hand additions of SiA mixtures at the desired concentration to the plant roots of treatment plants; control plants were treated with plain water in the same volume at the same time without the addition of SiA.
7.5 mM solutions of MeJA (mixture of isomers) were prepared in 1-liter volumes using 93% purity MeJA stock solution (TCI America, CAS #[…]) added to reverse osmosis water dropwise with a pipettor while stirring. The pH of the final solution was not adjusted. 0.5 mM solutions of SA were prepared from a 0.5M stock solution, which was prepared using Salicylic Acid powder (ThermoFisher Scientific, CAS #69-72-7), dissolved in 200-proof anhydrous EtOH, denatured (VWR Life Sciences) and stored in a sealed glass bottle. Plant-useable solution was prepared by diluting 1000 μL, of the stock SA solution in 999 mL of reverse osmosis water. Foliar applications of MeJA and SA were made with a 1-L volume low-pressure hand-pump sprayer (Mondi Products LTD, Canada). Silicic Acid solutions were prepared as needed using Silicic Acid stock powder (extra pure light DAB, Millipore Sigma, CAS #7699-41-4), dissolved in reverse osmosis water to the desired final concentration.
Plants were maintained under identical conditions in the same growing environment. […]

[2] = tested on: plants from clone (Charlotte x Tangie); assay: Example 4: flower yield / plant weight with varying concentrations of MeJA foliar spray; type: in vivo, Cannabis sativa
Text: Example 4: Assessment of Flower Yield in plants treated with varying concentrations of MeJA. […] In turn, we designed an experiment to evaluate the efficacy and effectiveness of applying MeJA as a foliar spray to plants in different concentrations.
Fourteen (14) identical plants from clone (Charlotte x Tangie, CBDRx) were cultivated in 1-gallon black plastic pots in a media mixture of 55% coco coir, 45% perlite (Miller Soils LLC, Colorado). Plants were rooted in 1-inch A-OK rockwool cubes (Grodan, B.V.) uniformly prior to transplant into the 1-gallon pots. At the time of transplant, plants were also transitioned from a photoperiod of 18 hours of light per day to a photoperiod of 12 hours of light per day to induce flowering. Each plant was maintained with a standard, commercially available 3-part (4-20-39, CaNO3, MgSO4) nutrient solution at a recommended rate of 350 ppm (Hydro Gardens International, CO), hand watered as needed with 1 L per plant. Plants were randomly assigned to one of four groups, including three treatment groups and one control group: 0 mM MeJA (control), 5 mM MeJA (low), 7.5 mM MeJA (med), and 10 mM MeJA (high). Plants were maintained under identical environmental conditions on a 4′×8′ black plastic table (Botanicare, USA) under 1200 w of light (Gavita Inc, Ne). […]

[3] = day 28, MeJA alone or in conjunction with other elicitors vs non-MeJA treatment, p≤0.05

Structure (SMILES) | terpene production (in words) [1] | THCA production (in words) ([1]; applied independently without supplemental MeJA applications) | Total terpene production, change ([1]; day 28, p≤0.05) | THCA, change ([1]; day 63, SA treatment plants vs control plants, p≤0.05) [%] | impact on plant performance ([2]; exogenous foliar applications, 5-10 mM MeJA) | differences in weights between the treatment groups ([2]; foliar spray 0, 5, 7.5, 10 mM MeJA every 14 days from day 7 of the reproductive cycle) | Total cannabinoids concentration, change [1, 3] | total CBD concentration, change [1, 3] | total THC concentration, change [1, 3] | Total CBDA, change ([1]; day 42, MeJA treatments vs no MeJA treatments, p≤0.0005) | Total THC-A, change ([1]; day 42, MeJA treatments vs no MeJA treatments, significance less than 0.0005) | Total cannabinoids (THC, THCA, CBD, CBDA), change ([1]; day 42, groups with MeJA alone or in combination vs groups without MeJA, p≤0.001) | total cannabinoid concentration, change ([1]; day 42, plants that received MeJA treatments (MeJA or MeJA+SiA or MeJA+SiA+SA) vs control group, p≤0.005) | total cannabinoid contents, change ([1]; day 63, some sort of MeJA treatment (MeJA only, MeJA with SiA, or ALL) vs control group, p≤0.05) | total cannabinoid contents, change ([1]; day 63, some sort of MeJA treatment (MeJA only, MeJA with SiA, or ALL) vs no MeJA (control, SA only, SiA only), p≤0.000001) | CBD content, change ([1]; day 63, vs control plants, p≤0.05 (ALL: p≤0.01)) | cannabinoid production (in words) ([1]; throughout the flowering cycle, applied alone or in conjunction with other treatments)
O=C(O)c1ccccc1O [SA, Salicylic acid] | increased terpene production | decreased THCA production | +35% | −45.67 |  |  |  |  |  |  |  |  |  |  |  |  | 
CC/C=C\CC1C(=O)CCC1CC(=O)OC (stereo not shown) [MeJA, Methyl Jasmonate] | increased terpene production |  | +35% |  | did not negatively impact plant performance | No significant differences | +61.96% | +61.49% | +61.30% | +54.99% | +56.82% | +54.67% | +41.49% | +33.11% | +58.64% | +23.27% | consistently increased cannabinoid production

Source: patent US20220183290A1, “CHEMICALS WHICH ALTER THE PRODUCTION OF METABOLITES IN CULTIVATED PLANTS” (priority 2017, published 2022)
